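Assay format: 96-well plates, 48-hour exposure. GI50: concentration for 50% inhibition of growth.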 Calls of active or inactive are those of the source. Rule as the data show it: active = GI50 up to about 1.1 µM and inactive = higher.
How the values were obtained:
Experiment in all cases: inhibition of tumour cell growth, NCI panel, 48 h
SN12C = system: SN12C
HL-60 = system: HL-60
HCT-116 = system: HCT-116
IGROV-1 = system: IGROV-1
OVCAR-5 = system: OVCAR-5
NCI-H23 = system: NCI-H23
EKVX = system: EKVX
M14 = system: M14
SNB-75 = system: SNB-75
UO-31 = system: UO-31
K562 = system: K562
A549 = system: A549
U-251 = system: U-251
MDA-N = system: MDA-N
A498 = system: A498
HCC 2998 = system: HCC 2998
MDA-MB-435 = system: MDA-MB-435
KM12 = system: KM12
SK-OV-3 = system: SK-OV-3
DU-145 = system: DU-145
SF-295 = system: SF-295
NCI/ADR-RES = system: NCI/ADR-RES
NCI-H522 = system: NCI-H522
T47D = system: T47D
NCI-H226 = system: NCI-H226
Malme-3M = system: Malme-3M
SK-MEL-28 = system: SK-MEL-28
SK-MEL-5 = system: SK-MEL-5
MCF7 = system: MCF7
OVCAR-8 = system: OVCAR-8
MDA-MB-231 = system: MDA-MB-231
BT-549 = system: BT-549
CCRF-CEM = system: CCRF-CEM
HT-29 = system: HT-29
OVCAR-4 = system: OVCAR-4
Hs-578T = system: Hs-578T
HOP-62 = system: HOP-62
SK-MEL-2 = system: SK-MEL-2
NCI-H460 = system: NCI-H460
ACHN = system: ACHN
UACC-62 = system: UACC-62
SF-539 = system: SF-539
SNB-19 = system: SNB-19
LOX IMVI = system: LOX IMVI
CAKI-1 = system: CAKI-1
MOLT-4 = system: MOLT-4
COLO 205 = system: COLO 205
UACC-257 = system: UACC-257
SF-268 = system: SF-268
786-0 = system: 786-0
RPMI-8226 = system: RPMI-8226
SR = system: SR
OVCAR-3 = system: OVCAR-3
PC-3 = system: PC-3
RXF 393 = system: RXF 393
HOP-92 = system: HOP-92
HCT-15 = system: HCT-15
TK-10 = system: TK-10
SW-620 = system: SW-620

## CC1(C)CCC2=C(O1)/C(=N\Nc1ccc(F)cc1)c1ccccc1C2=O
SN12C
  GI50: 32.3 µM (inactive)
HL-60
  GI50: 16 µM (inactive)
HCT-116
  GI50: 31.3 µM (inactive)
IGROV-1
  GI50: 31.9 µM (inactive)
OVCAR-5
  GI50: 35.6 µM (inactive)
NCI-H23
  GI50: 25.2 µM (inactive)
EKVX
  GI50: 22.4 µM (inactive)
M14
  GI50: 20.1 µM (inactive)
SNB-75
  GI50: 22.2 µM (inactive)
UO-31
  GI50: 38.2 µM (inactive)
K562
  GI50: 49.5 µM (inactive)
A549
  GI50: 16.1 µM (inactive)
U-251
  GI50: 31.5 µM (inactive)
MDA-N
  GI50: 17.7 µM (inactive)
A498
  GI50: 30.3 µM (inactive)
HCC 2998
  GI50: 21.9 µM (inactive)
MDA-MB-435
  GI50: 18.1 µM (inactive)
KM12
  GI50: 31.3 µM (inactive)
SK-OV-3
  GI50: 54.7 µM (inactive)
DU-145
  GI50: 18.4 µM (inactive)
SF-295
  GI50: 20.7 µM (inactive)
NCI/ADR-RES
  GI50: 71.8 µM (inactive)
NCI-H522
  GI50: 61.9 µM (inactive)
T47D
  GI50: 17.3 µM (inactive)
NCI-H226
  GI50: > 100 µM (inactive)
Malme-3M
  GI50: 30.6 µM (inactive)
SK-MEL-28
  GI50: 26.2 µM (inactive)
SK-MEL-5
  GI50: 8.91 µM (inactive)
MCF7
  GI50: 27.3 µM (inactive)
OVCAR-8
  GI50: 41.8 µM (inactive)
MDA-MB-231
  GI50: 46.7 µM (inactive)
BT-549
  GI50: 41.9 µM (inactive)
CCRF-CEM
  GI50: 11.8 µM (inactive)
HT-29
  GI50: 18.9 µM (inactive)
OVCAR-4
  GI50: 34.4 µM (inactive)
Hs-578T
  GI50: 28.4 µM (inactive)
HOP-62
  GI50: 21.7 µM (inactive)
SK-MEL-2
  GI50: 32.3 µM (inactive)
NCI-H460
  GI50: 23.9 µM (inactive)
ACHN
  GI50: 38.5 µM (inactive)
UACC-62
  GI50: 14.7 µM (inactive)
SF-539
  GI50: 46.9 µM (inactive)
SNB-19
  GI50: 35.6 µM (inactive)
LOX IMVI
  GI50: 11.5 µM (inactive)
CAKI-1
  GI50: 40.4 µM (inactive)
MOLT-4
  GI50: 35.3 µM (inactive)
COLO 205
  GI50: 35.1 µM (inactive)
UACC-257
  GI50: 17.3 µM (inactive)
SF-268
  GI50: 52.1 µM (inactive)
786-0
  GI50: 32.4 µM (inactive)
RPMI-8226
  GI50: 40.4 µM (inactive)
SR
  GI50: 21.9 µM (inactive)
OVCAR-3
  GI50: 21 µM (inactive)
PC-3
  GI50: 34.8 µM (inactive)
RXF 393
  GI50: 35.2 µM (inactive)
HOP-92
  GI50: 39.5 µM (inactive)
HCT-15
  GI50: 43.6 µM
TK-10
  GI50: 38.9 µM (inactive)
SW-620
  GI50: 25.5 µM (inactive)

## N#CCN1CCN(CC#N)CCN(CC#N)CCN(CC#N)CC1
SN12C
  GI50: > 100 µM (inactive)
HL-60
  GI50: 33.3 µM (inactive)
HCT-116
  GI50: > 100 µM (inactive)
IGROV-1
  GI50: > 100 µM (inactive)
OVCAR-5
  GI50: > 100 µM (inactive)
NCI-H23
  GI50: > 100 µM (inactive)
M14
  GI50: > 100 µM (inactive)
SNB-75
  GI50: > 100 µM (inactive)
UO-31
  GI50: > 100 µM (inactive)
K562
  GI50: > 100 µM (inactive)
A549
  GI50: > 100 µM (inactive)
U-251
  GI50: > 100 µM (inactive)
MDA-N
  GI50: > 100 µM (inactive)
A498
  GI50: > 100 µM (inactive)
HCC 2998
  GI50: 43.5 µM (inactive)
MDA-MB-435
  GI50: > 100 µM (inactive)
KM12
  GI50: > 100 µM (inactive)
SK-OV-3
  GI50: 46.8 µM (inactive)
DU-145
  GI50: > 100 µM (inactive)
SF-295
  GI50: > 100 µM (inactive)
NCI/ADR-RES
  GI50: > 100 µM (inactive)
NCI-H522
  GI50: > 100 µM (inactive)
T47D
  GI50: > 100 µM (inactive)
NCI-H226
  GI50: > 100 µM (inactive)
Malme-3M
  GI50: > 100 µM (inactive)
SK-MEL-28
  GI50: > 100 µM (inactive)
SK-MEL-5
  GI50: > 100 µM (inactive)
MCF7
  GI50: 43.1 µM (inactive)
OVCAR-8
  GI50: > 100 µM (inactive)
MDA-MB-231
  GI50: > 100 µM (inactive)
BT-549
  GI50: > 100 µM (inactive)
CCRF-CEM
  GI50: 67 µM (inactive)
HT-29
  GI50: 50.5 µM (inactive)
OVCAR-4
  GI50: > 100 µM (inactive)
Hs-578T
  GI50: > 100 µM (inactive)
HOP-62
  GI50: > 100 µM (inactive)
SK-MEL-2
  GI50: > 100 µM (inactive)
NCI-H460
  GI50: 53.3 µM (inactive)
ACHN
  GI50: > 100 µM (inactive)
UACC-62
  GI50: 80.2 µM (inactive)
SF-539
  GI50: > 100 µM (inactive)
SNB-19
  GI50: > 100 µM (inactive)
LOX IMVI
  GI50: 33.3 µM (inactive)
CAKI-1
  GI50: > 100 µM (inactive)
MOLT-4
  GI50: > 100 µM (inactive)
COLO 205
  GI50: > 100 µM (inactive)
UACC-257
  GI50: > 100 µM (inactive)
SF-268
  GI50: > 100 µM (inactive)
786-0
  GI50: > 100 µM (inactive)
RPMI-8226
  GI50: 38.3 µM (inactive)
SR
  GI50: > 100 µM (inactive)
OVCAR-3
  GI50: > 100 µM (inactive)
PC-3
  GI50: 96.4 µM (inactive)
RXF 393
  GI50: 79.6 µM (inactive)
HOP-92
  GI50: > 100 µM (inactive)
TK-10
  GI50: > 100 µM (inactive)
SW-620
  GI50: 42 µM (inactive)

## CSc1ccc(-c2cc(-c3nc4ccccc4[nH]3)nc(N)c2C#N)cc1
SN12C
  GI50: 25.8 µM (inactive)
HL-60
  GI50: 20 µM (inactive)
HCT-116
  GI50: 17.9 µM (inactive)
IGROV-1
  GI50: 8.67 µM (inactive)
OVCAR-5
  GI50: 26.6 µM (inactive)
NCI-H23
  GI50: 24.9 µM (inactive)
EKVX
  GI50: 20.1 µM (inactive)
M14
  GI50: 16.8 µM (inactive)
SNB-75
  GI50: 23.1 µM (inactive)
K562
  GI50: 18.4 µM (inactive)
A549
  GI50: 23.1 µM (inactive)
MDA-N
  GI50: 20.7 µM (inactive)
A498
  GI50: 15 µM (inactive)
HCC 2998
  GI50: 17.1 µM (inactive)
MDA-MB-435
  GI50: 17.7 µM (inactive)
KM12
  GI50: 21 µM (inactive)
SK-OV-3
  GI50: 33 µM (inactive)
DU-145
  GI50: 17.4 µM (inactive)
SF-295
  GI50: 21.9 µM (inactive)
NCI/ADR-RES
  GI50: 31.3 µM (inactive)
NCI-H522
  GI50: 16.1 µM (inactive)
T47D
  GI50: 13.5 µM (inactive)
NCI-H226
  GI50: 21.3 µM (inactive)
Malme-3M
  GI50: 19.4 µM (inactive)
SK-MEL-28
  GI50: 20.2 µM (inactive)
SK-MEL-5
  GI50: 13.3 µM (inactive)
MCF7
  GI50: 15.6 µM (inactive)
OVCAR-8
  GI50: 31.6 µM (inactive)
MDA-MB-231
  GI50: 17.1 µM (inactive)
BT-549
  GI50: 20.6 µM (inactive)
CCRF-CEM
  GI50: 13.3 µM (inactive)
HT-29
  GI50: 21.9 µM (inactive)
Hs-578T
  GI50: 24.7 µM (inactive)
HOP-62
  GI50: 19.1 µM (inactive)
SK-MEL-2
  GI50: 16.9 µM (inactive)
NCI-H460
  GI50: 22 µM (inactive)
ACHN
  GI50: 19.9 µM (inactive)
UACC-62
  GI50: 12.3 µM (inactive)
SF-539
  GI50: 23.6 µM (inactive)
SNB-19
  GI50: 25.2 µM (inactive)
LOX IMVI
  GI50: 18.2 µM (inactive)
CAKI-1
  GI50: 18.3 µM (inactive)
MOLT-4
  GI50: 8.39 µM (inactive)
COLO 205
  GI50: 15.9 µM (inactive)
UACC-257
  GI50: 18.5 µM (inactive)
SF-268
  GI50: 17.3 µM (inactive)
786-0
  GI50: 26.1 µM (inactive)
RPMI-8226
  GI50: 21.4 µM (inactive)
SR
  GI50: 13.1 µM (inactive)
OVCAR-3
  GI50: 16.5 µM (inactive)
PC-3
  GI50: 20.7 µM (inactive)
RXF 393
  GI50: 2.58 µM (inactive)
HOP-92
  GI50: 8.55 µM (inactive)
HCT-15
  GI50: 20.2 µM
TK-10
  GI50: 31.6 µM (inactive)
SW-620
  GI50: 31.3 µM (inactive)

— ChEMBL document CHEMBL1201862, “PubChem BioAssay data set” (2004)
